Assay results published in BindingDB's records for doi:10.1016/S0960-894X(01)80292-4 (1994).

Experiments:
[1] = target: T1, Human immunodeficiency virus type 1 protease (Human immunodeficiency virus 1, UniProt Q72874); experiment: (§1) Inhibitory activity was evaluated against HIV-1 protease
[2] = target: T1, Human immunodeficiency virus type 1 protease; experiment: as §1; remark: listed apart in the source

- IC50 [1]: > 100 µM
- IC50 [2]: > 100 µM
SMILES: OC1N=C(Cc2ccccc2)P(O)(O)=C(Cc2ccccc2)N1 (configuration not stated) [4,6-Dibenzyl-5-hydroxy-5-oxo-5lambda*5*-[1,3,5]diazaphosphinan-2-one]
